SMILES strings stand for the structures.

T1 sequence (Q15858 whole entry): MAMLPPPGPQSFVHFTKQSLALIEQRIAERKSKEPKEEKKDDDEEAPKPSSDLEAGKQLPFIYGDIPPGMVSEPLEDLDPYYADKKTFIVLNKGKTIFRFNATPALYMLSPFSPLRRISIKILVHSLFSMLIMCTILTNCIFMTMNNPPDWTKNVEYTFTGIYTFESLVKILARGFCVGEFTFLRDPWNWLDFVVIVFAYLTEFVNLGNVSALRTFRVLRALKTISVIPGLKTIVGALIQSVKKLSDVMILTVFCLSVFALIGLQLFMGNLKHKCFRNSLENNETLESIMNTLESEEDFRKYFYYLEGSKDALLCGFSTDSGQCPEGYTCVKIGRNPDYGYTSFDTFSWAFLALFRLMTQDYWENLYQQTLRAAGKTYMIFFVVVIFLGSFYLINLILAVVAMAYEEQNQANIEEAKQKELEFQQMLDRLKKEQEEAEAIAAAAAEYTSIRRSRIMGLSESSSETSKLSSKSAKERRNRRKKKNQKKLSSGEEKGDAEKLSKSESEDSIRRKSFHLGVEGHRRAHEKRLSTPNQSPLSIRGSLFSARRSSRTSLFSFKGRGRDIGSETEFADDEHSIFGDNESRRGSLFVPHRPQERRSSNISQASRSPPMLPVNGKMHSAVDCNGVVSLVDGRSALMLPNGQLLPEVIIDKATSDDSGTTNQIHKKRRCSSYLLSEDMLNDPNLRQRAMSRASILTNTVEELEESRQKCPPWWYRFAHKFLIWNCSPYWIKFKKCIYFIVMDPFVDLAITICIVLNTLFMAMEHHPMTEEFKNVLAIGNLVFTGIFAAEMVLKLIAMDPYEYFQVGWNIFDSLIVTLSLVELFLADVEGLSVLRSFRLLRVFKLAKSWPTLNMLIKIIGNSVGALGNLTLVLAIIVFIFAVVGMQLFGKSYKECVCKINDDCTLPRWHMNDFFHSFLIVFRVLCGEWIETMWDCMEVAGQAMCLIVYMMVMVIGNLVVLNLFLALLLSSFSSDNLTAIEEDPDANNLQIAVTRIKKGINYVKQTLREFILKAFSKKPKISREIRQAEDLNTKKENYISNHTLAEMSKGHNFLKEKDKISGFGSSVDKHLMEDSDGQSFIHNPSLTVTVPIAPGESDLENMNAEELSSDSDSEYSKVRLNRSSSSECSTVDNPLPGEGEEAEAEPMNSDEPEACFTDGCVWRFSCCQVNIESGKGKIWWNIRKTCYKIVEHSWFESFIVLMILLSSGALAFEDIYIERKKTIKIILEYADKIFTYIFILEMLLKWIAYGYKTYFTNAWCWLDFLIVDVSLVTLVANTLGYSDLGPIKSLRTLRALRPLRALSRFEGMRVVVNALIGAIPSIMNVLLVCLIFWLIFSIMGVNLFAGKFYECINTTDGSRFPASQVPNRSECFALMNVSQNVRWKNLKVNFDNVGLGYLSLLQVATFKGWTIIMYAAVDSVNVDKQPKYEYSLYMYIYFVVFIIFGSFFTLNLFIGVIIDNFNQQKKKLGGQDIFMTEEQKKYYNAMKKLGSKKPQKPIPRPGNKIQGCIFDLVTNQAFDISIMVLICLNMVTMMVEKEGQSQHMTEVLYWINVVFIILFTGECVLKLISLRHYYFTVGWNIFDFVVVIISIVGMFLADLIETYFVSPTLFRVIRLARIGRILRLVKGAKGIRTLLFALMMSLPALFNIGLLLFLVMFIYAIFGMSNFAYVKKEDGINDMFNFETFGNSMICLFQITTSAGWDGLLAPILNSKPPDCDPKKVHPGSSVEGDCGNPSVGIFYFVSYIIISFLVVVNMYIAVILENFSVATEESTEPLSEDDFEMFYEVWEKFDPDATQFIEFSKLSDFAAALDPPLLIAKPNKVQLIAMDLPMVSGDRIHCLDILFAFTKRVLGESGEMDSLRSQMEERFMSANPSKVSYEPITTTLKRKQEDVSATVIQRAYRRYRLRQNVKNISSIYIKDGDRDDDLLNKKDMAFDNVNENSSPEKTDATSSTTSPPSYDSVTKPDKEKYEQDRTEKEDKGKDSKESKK

The experiment concerns the target T1, Nav1.7 (or SCN9A) channel (Homo sapiens, UniProt Q15858).
T1 construct: expressed in transfected cells
Description: Nav1.7 PatchXpress 7000 automated electrophysiology assay (HEK cells stably expressing hSCN9A). The following applies: voltage-clamped at V1/2 of inactivation, read-out: Nav1.7 EIC50. Format: cell-based. The protocol:
The ability of the compounds of formula (I) to block the Nav1.7 (or SCN9A) channel was measured using the assays described below.
Human Embryonic Kidney (HEK) cells were transfected with an hSCN9A construct using lipofectamine reagent (Invitrogen), using standard techniques. Cells stably expressing the hSCN9A constructs were identified by their resistance to G-418 (400 μg/ml). Clones were screened for expression using the whole-cell voltage-clamp technique.
HEK cells stably transfected with hSCN9A were maintained in DMEM medium supplemented with 10% heat-inactivated fetal bovine serum and 400 μg/ml G-418 in an incubator at 37° C. with a humidified atmosphere of 10% CO2. For HTS, cells were harvested from flasks by trypsinization and replated in an appropriate multi-well plate (typically 96 or 384 wells/plate) such that confluence would be achieved within 24 hours of plating. For electrophysiological studies, cells were removed from the culture flask by brief trypsinization and re-plated at low density onto glass cover slips. Cells were typically used for electrophysiological experiments within 24 to 72 hours after plating.
Cover slips containing HEK cells expressing hSCN9A were placed in a bath on the stage of an inverted microscope and perfused (approximately 1 ml/minutes) with extracellular solution of the following composition: 138 mM NaCl, 2 mM CaCl2, 5.4 mM KCl, 1 mM MgCl2, 10 mM glucose, and 10 mM HEPES, pH 7.4, with NaOH. […] The osmolarity of the extracellular and intracellular solutions was 300 mOsm/kg and 295 mOsm/kg, respectively. All recordings were made at room temperature (22-24° C.) using AXOPATCH 200B amplifiers and PCLAMP software (Axon Instruments, Burlingame, Calif.).
HEK cells stably transfected with hSCN9A were viewed under Hoffman contrast optics and placed in front of an array of flow pipes emitting either control or compound-containing extracellular solutions. All compounds were dissolved in dimethyl sulfoxide to make 10 mM stock solutions, which were then diluted into extracellular solution to attain the final concentrations desired. […] The voltage-dependence of inactivation was determined by applying a series of depolarizing prepulses (8 sec long in 10 mV increments) from a negative holding potential. The voltage was then immediately stepped to 0 mV to assess the magnitude of the sodium current. Currents elicited at 0 mV were plotted as a function of prepulse potential to allow estimation of the voltage at which 50% of the channels were inactivated (midpoint of inactivation or V1/2). Compounds were tested for their ability to inhibit hSCN9A sodium channels by activating the channel with a 20 msec voltage step to 0 mV following an 8 second conditioning prepulse to the empirically determined V1/2. Compound effect (% inhibition) was determined by difference in current amplitude before and after application of test compounds. For ease of comparison, “estimated IC-50” (EIC50) values were calculated from single point electrophysiology data by the following equation, (tested concentration, uM)×(100-% inhibition/% inhibition). Inhibition values <20% and >80% were excluded from the calculation.
Electrophysiological assays were conducted with PatchXpress 7000 hardware and associated software (Molecular Devices Corp). All assay buffers and solutions were identical to those used in conventional whole-cell voltage clamp experiments described above. hSCN9A cells were grown as above to 50%-80% confluency and harvested by trypsinization. Trypsinized cells were washed and resuspended in extracellular buffer at a concentration of 1×10^6 cells/ml. The onboard liquid handling facility of the PatchXpress was used for dispensing cells and application of test compounds. Determination of the voltage midpoint of inactivation was as described for conventional whole-cell recordings. Cells were then voltage-clamped to the empirically determined V1/2 and current was activated by a 20 msec voltage step to 0 mV. […]
On to `Cc1ccc(Oc2cc(F)c(C(=O)NS(C)(=O)=O)cc2F)cc1C` [Example 141, 4-(3,4-dimethylphenoxy)-2,5-difluoro-N-(methylsulfonyl)benzamide], for which the IC50 turned out to be 2500 nM.

For the molecule `CS(=O)(=O)NC(=O)c1cc(F)c(Oc2ccc(OC(F)F)c(Cl)c2)cc1F` [Example 13, 4-[3-chloro-4-(difluoromethoxy)phenoxy]-2,5-difluoro-N-(methylsulfonyl)benzamide], the IC50 is 2500 nM.

Regarding `Cc1cc(C(=O)NS(C)(=O)=O)ccc1Oc1cccc(Cl)c1` [Example 238, 4-(3-chlorophenoxy)-3-methyl-N-(methylsulfonyl)benzamide], the IC50 is 960 nM.

In the case of `CS(=O)(=O)NC(=O)c1cc(F)c(Oc2ccc(C(F)(F)F)c(Cl)c2)cc1F` [Example 33, 4-(3-chloro-4-(trifluoromethyl)phenoxy)-2,5-difluoro-N-(methylsulfonyl)benzamide], the IC50 amounted to 500 nM.

For `CC(C)c1ccccc1Oc1ccc(C(=O)NS(C)(=O)=O)cc1` [Example 169, 4-(2-isopropylphenoxy)-N-(methylsulfonyl)benzamide], the IC50 turned out to be 21000 nM.

Turning to `COc1ccc(C)cc1Oc1cc(F)c(C(=O)NS(C)(=O)=O)cc1F` [Example 86, 2,5-difluoro-4-(2-methoxy-5-methylphenoxy)-N-(methylsulfonyl)benzamide], the IC50 is more than 1000 nM.

Consider `Cc1ccccc1Oc1ccc(C(=O)NS(C)(=O)=O)cc1` [Example 191, 4-(2-methylphenoxy)-N-(methylsulfonyl)benzamide], for which the IC50 is more than 10000 nM.

Take `Cc1cc(C)cc(Oc2ccc(C(=O)NS(C)(=O)=O)cc2)c1` [Example 174, 4-(3,5-dimethylphenoxy)-N-(methylsulfonyl)benzamide]: the IC50 stood at 20000 nM.

Consider `Cc1ccccc1Oc1cc(F)c(C(=O)NS(C)(=O)=O)cc1F` [Example 111, 2,5-difluoro-4-(2-methylphenoxy)-N-(methylsulfonyl)benzamide], for which the IC50 was more than 3000 nM.

Regarding `Cc1cc(Oc2cc(F)c(C(=O)NS(C)(=O)=O)cc2F)cc(C)c1C#N` [Example 112, 4-(4-cyano-3,5-dimethylphenoxy)-2,5-difluoro-N-(methylsulfonyl)benzamide], the IC50 is more than 3000 nM.

In the case of `COc1cc(Cl)cc(Oc2cc(F)c(C(=O)NS(C)(=O)=O)cc2F)c1` [Example 144, 4-(3-chloro-5-methoxyphenoxy)-2,5-difluoro-N-(methylsulfonyl)benzamide], the IC50 is 2300 nM.

As for `O=C(NS(=O)(=O)C1CC1)c1ccc(Oc2ccc(Cl)cc2)cc1` [Example 26, 4-(4-chlorophenoxy)-N-(cyclopropylsulfonyl)benzamide], the IC50 turned out to be 430 nM.

On to `CS(=O)(=O)NC(=O)c1ccc(Oc2ccc(Cl)c(C(F)(F)F)c2)c(Cl)c1` [Example 44, 3-chloro-4-[4-chloro-3-(trifluoromethyl)phenoxy]-N-(methylsulfonyl)benzamide], for which the IC50 was 2000 nM.

Consider `COc1cccc(Oc2ccc(C(=O)NS(C)(=O)=O)cc2C#N)c1` [Example 277, 3-cyano-4-(3-methoxyphenoxy)-N-(methylsulfonyl)benzamide], for which the IC50 was found to be 5600 nM.

For the molecule `Cc1ccc(Oc2ccc(C(=O)NS(C)(=O)=O)cc2Cl)cc1` [Example 215, 3-chloro-4-(4-methylphenoxy)-N-(methylsulfonyl)benzamide], the IC50 was determined as 1300 nM.

As for `CS(=O)(=O)NC(=O)c1ccc(Oc2cccc(Cl)c2)c(F)c1` [Example 223, 4-(3-chlorophenoxy)-3-fluoro-N-(methylsulfonyl)benzamide], the IC50 is 2400 nM.

Consider `CS(=O)(=O)NC(=O)c1ccc(Oc2cccc(C(F)(F)F)c2)cc1` [Example 163, N-(methylsulfonyl)-4-[3-(trifluoromethyl)phenoxy]benzamide], for which the IC50 turned out to be 12000 nM.

On to `CS(=O)(=O)NC(=O)c1cc(Cl)c(Oc2ccc(Cl)cc2)cc1F` [Example 295, 5-chloro-4-(4-chlorophenoxy)-2-fluoro-N-(methylsulfonyl)benzamide], for which the IC50 amounted to 97 nM.

Take `CS(=O)(=O)NC(=O)c1ccc(Oc2ccccc2-c2ccccc2)cc1` [Example 268, 4-(biphenyl-2-yloxy)-N-(methylsulfonyl)benzamide]: the IC50 was determined as 5300 nM.

In the case of `COc1cccc(Oc2cc(F)c(C(=O)NS(C)(=O)=O)cc2F)c1` [Example 134, 2,5-difluoro-4-(3-methoxyphenoxy)-N-(methylsulfonyl)benzamide], the IC50 is more than 3000 nM.

Turning to `CS(=O)(=O)NC(=O)c1ccc(Sc2ccc(Cl)c(Cl)c2)cc1` [Example 317, 4-[(3,4-Dichlorophenyl)sulfanyl]-N-(methylsulfonyl)benzamide], the IC50 amounted to 3500 nM.

With `CS(=O)(=O)NC(=O)c1ccc(Oc2ccccc2OCc2ccccc2)cc1` [Example 176, 4-[2-(benzyloxy)phenoxy]-N-(methylsulfonyl)benzamide], the IC50 is more than 10000 nM.

Consider `CCc1cc(Cl)ccc1Oc1cc(F)c(C(=O)NS(C)(=O)=O)cc1F` [Example 3, 4-(4-Chloro-2-ethylphenoxy)-2,5-difluoro-N-(methylsulfonyl)benzamide], for which the IC50 is 1700 nM.

For the molecule `COc1cc(C(=O)NS(C)(=O)=O)ccc1Cc1ccc(Cl)c(Cl)c1` [Example 322, 4-(3,4-dichlorobenzyl)-3-methoxy-N-(methylsulfonyl)benzamide], the IC50 is more than 3000 nM.

Take `CS(=O)(=O)NC(=O)c1cc(F)c(Oc2ccc(C#N)c(Cl)c2)cc1F` [Example 95, 4-(3-chloro-4-cyanophenoxy)-2,5-difluoro-N-(methylsulfonyl)benzamide]: the IC50 is more than 3000 nM.

Consider `CCOc1ccc(Oc2ccc(C(=O)NS(C)(=O)=O)cc2)cc1` [Example 253, 4-(4-ethoxyphenoxy)-N-(methylsulfonyl)benzamide], for which the IC50 came out at 2500 nM.

Turning to `CCOc1ccc(Oc2cc(F)c(C(=O)NS(C)(=O)=O)cc2Cl)cc1` [Example 294, 5-chloro-4-(4-ethoxyphenoxy)-2-fluoro-N-(methylsulfonyl)benzamide], the IC50 came out at 160 nM.

Take `CS(=O)(=O)NC(=O)c1cc(F)c(Oc2ccc(Cl)c(C(F)(F)F)c2)c(F)c1` [Example 45, 4-(4-chloro-3-(trifluoromethyl)phenoxy)-3,5-difluoro-N-(methylsulfonyl)benzamide]: the IC50 worked out at 1100 nM.

In the case of `COc1cc(Cl)ccc1Oc1ccc(C(=O)NS(C)(=O)=O)c(OC)c1` [Example 40, 4-(4-chloro-2-methoxyphenoxy)-2-methoxy-N-(methylsulfonyl)benzamide], the IC50 was found to be 25000 nM.

Take `Cc1cc(Oc2ccc(C(=O)NS(C)(=O)=O)cc2)ccc1Cl` [Example 170, 4-(4-chloro-3-methylphenoxy)-N-(methylsulfonyl)benzamide]: the IC50 turned out to be 1900 nM.

For `COc1cc(Oc2ccc(F)c(C)c2)ccc1C(=O)NS(C)(=O)=O` [Example 216, 4-(4-fluoro-3-methylphenoxy)-2-methoxy-N-(methylsulfonyl)benzamide], the IC50 turned out to be 11000 nM.

With `COc1ccc(Oc2ccc(C(=O)NS(C)(=O)=O)cc2)c(F)c1F` [Example 196, 4-(2,3-difluoro-4-methoxyphenoxy)-N-(methylsulfonyl)benzamide], the IC50 worked out at 11000 nM.

Regarding `CS(=O)(=O)NC(=O)c1ccc(Oc2ccccc2Cl)c(Cl)c1` [Example 248, 3-chloro-4-(2-chlorophenoxy)-N-(methylsulfonyl)benzamide], the IC50 was 1700 nM.

Turning to `CCOc1cccc(Oc2ccc(C(=O)NS(C)(=O)=O)cc2C#N)c1` [Example 281, 3-cyano-4-(3-ethoxyphenoxy)-N-(methylsulfonyl)benzamide], the IC50 is 4300 nM.

With `CS(=O)(=O)NC(=O)c1cc(F)c(Oc2cc(F)cc(F)c2F)cc1F` [Example 97, 2,5-difluoro-N-(methylsulfonyl)-4-(2,3,5-trifluorophenoxy)benzamide], the IC50 came to 7000 nM.

Values taken from patent US8685977B2, “Chemical compounds” (Pfizer Limited, priority 2010, dated 2014).
